Measurements reported in PMC7562898, “Homogeneous single-label cGMP detection platform for the functional study of nitric oxide-sensitive (soluble) guanylyl cyclases and cGMP-specific phosphodiesterases” (Scientific Reports, 2020).
Where two headings read alike, the source gives them in different places. One block for each compound: values may come before it.

Assays:
[1] = test system: PDEs in mouse brain homogenate; experiment: cGMP hydrolysis (PDE activity) in mouse brain homogenate; type: biochemical; conditions: 0.1 mg/ml homogenate, 50 µM cGMP, 15 min at 37 °C, 3 µM MT2; read-out: apparent IC50 of cGMP hydrolysis in mouse brain homogenate
Method: PDE inhibitors with varying specificity profile, BAY73-6691, sildenafil, and IBMX (0–500 µM), were assayed in a high-speed supernatants of mouse brain homogenates. Reactions were performed in 5 µL volume in the presence of 0.1 mg/ml of homogenate and 50 µM cGMP. After 15 min incubation at 37 °C, detection solution (0.4 µg/ml cGMP antibody, 5 nM Eu(III)-cGMP, and 3.0 µM MT2) was added and TRF-signals were recorded.

sGC [2] = biological target: T1, sGC (Homo sapiens, UniProt Q02108+Q02153); experiment: sGC activity assay, endpoint QRET cGMP detection; type: biochemical; conditions: for effect on sGC activity at fixed saturating concentration: 10 µM NS2028, 10 µM DEA-NO; for EC50: 2 ng sGC, 0.5 mM GTP, 30 min at 37 °C, read-out: EC50 of concentration dependent sGC activation; for fold increase for cGMP compared to untreated sGC: 100 µM gemfibrozil or 10 µM DEA-NO
T1 construct: Full-length sGC was purified from Sf9 cells as described previously; made in house; host or cells: Sf9 cells
T1 sequence (Q02108 1-690): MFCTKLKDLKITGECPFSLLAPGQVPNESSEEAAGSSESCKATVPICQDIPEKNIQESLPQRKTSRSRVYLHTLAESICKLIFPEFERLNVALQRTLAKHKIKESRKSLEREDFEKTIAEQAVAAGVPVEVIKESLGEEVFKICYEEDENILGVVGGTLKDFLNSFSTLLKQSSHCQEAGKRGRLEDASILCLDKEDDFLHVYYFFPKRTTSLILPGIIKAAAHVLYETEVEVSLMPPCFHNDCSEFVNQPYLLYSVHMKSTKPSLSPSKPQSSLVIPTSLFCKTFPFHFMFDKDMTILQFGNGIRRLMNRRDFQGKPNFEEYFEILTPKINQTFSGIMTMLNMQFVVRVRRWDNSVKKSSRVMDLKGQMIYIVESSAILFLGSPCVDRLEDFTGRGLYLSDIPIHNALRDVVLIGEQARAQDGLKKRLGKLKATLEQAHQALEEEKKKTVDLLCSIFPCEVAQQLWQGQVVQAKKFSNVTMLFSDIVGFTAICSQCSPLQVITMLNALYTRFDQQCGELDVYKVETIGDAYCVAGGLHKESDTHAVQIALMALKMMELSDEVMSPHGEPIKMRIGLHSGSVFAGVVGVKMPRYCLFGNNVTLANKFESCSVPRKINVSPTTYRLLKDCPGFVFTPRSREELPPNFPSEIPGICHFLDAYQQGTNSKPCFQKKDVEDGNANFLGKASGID
T1 sequence (Q02153 1-619): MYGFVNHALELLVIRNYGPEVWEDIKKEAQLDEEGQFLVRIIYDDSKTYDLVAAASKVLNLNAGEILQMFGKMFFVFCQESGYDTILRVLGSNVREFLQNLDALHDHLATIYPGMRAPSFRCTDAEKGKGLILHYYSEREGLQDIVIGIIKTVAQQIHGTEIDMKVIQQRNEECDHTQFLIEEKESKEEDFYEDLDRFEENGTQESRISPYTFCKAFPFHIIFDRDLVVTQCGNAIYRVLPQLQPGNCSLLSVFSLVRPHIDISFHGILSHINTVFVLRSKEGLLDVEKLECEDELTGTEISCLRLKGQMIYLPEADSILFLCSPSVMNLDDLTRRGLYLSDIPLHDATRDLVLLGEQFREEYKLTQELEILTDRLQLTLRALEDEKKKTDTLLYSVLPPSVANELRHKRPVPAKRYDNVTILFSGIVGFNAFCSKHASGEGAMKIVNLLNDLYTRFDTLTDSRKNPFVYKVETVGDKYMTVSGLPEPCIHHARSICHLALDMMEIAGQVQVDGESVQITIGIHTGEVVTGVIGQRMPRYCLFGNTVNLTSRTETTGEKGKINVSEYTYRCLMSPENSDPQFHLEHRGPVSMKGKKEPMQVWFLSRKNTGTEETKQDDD
Method: Optimized cGMP detection platform was applied to all enzymatic assays. For non-stimulated conditions, purified sGC enzyme (0.04–276 ng/well) was incubated with or without 0.5 mM GTP in the assay buffer 2 for 10 to 45 min at 37 °C in 5 µL volume. The reaction was stopped by adding 5 µL of detection solution (0.4 µg/ml cGMP antibody, 5 nM Eu(III)-cGMP, and 2.2 µM MT2) containing EDTA. For NO stimulated sGC activity, the same reactions were performed in the presence of 10 or 100 µM DEA-NO added with GTP. DEA-NO was always prepared from a 100 mM stock solution in 10 mM NaOH, which was stored at − 80 °C. TRF-signals were always monitored multiple times between 5 to 90 min to determine the TRF-signal stability.
In assays where dose-dependent effect of three sGC activators, DEA-NO, YC-1, and riociguat, were tested, the compounds (0–100 µM) were incubated with 2 ng sGC. Reactions were initiated by adding 0.5 mM GTP to reach 5 µL volume and incubated for 30 min at 37 °C. Reactions were stopped by adding 5 µL of detection solution and TRF-signals were recorded. To evaluate the linearity of the cGMP production by sGC, 3 or 12 ng of sGC were used for resting conditions and 0.5 ng for 100 µM DEA-NO activated sGC. Assays were performed in separate plates and reactions were stopped at indicated time points (5–60 min), before TRF-signal monitoring as above.
For assays containing fixed concentration of sGC regulators, 5 ng of sGC was incubated with one, or the indicated combination of following molecules: 10 µM NS2028, 100 nM BAY58-2667, 100 µM gemfibrozil, 10 µM BAY41-2272, 100 µM Cbi, 10 µM DEA-NO or SNP with glutathione (100 µM each). 5 µL reactions containing 0.5 mM GTP were incubated for 10 min at 37 °C and stopped by adding the detection components. TRF-signals were recorded as described above.
Cell lysate interferences were evaluated in an endpoint assay with different amounts of sGC (0.008–166.7 ng) and 0.07 or 0.14 mg/ml of COS7 cell lysate. sGC/lysate mixture was supplemented with 0.5 mM GTP in the presence or absence of 10 µM DEA-NO, and 5 µL reaction was incubated for 10 min at 37 °C. Detection components were thereafter added and TRF-signals were monitored as above.
Reproducibility and HTS compatibility were determined by running Z’-factor assay using 24 sGC reactions with or without activity modulation in three consecutive days. Assays were performed with fixed sGC concentration (5 ng/well) and sGC activation was performed using gemfibrozil (100 µM) or DEA NONOate (10 µM). All assays were initiated by the addition of 0.5 mM GTP to obtain a final 5 µL reaction volume, 37 °C for 10 min. Detection solution was added and TRF-signals were monitored as previously. Z’-factors were calculated using sGC basal activity as negative and activated reactions (NO or gemfibrozil) as positive controls.
In parallel to all assays, changes in TRF-signal in response to different concentrations of exogenously added cGMP were recorded to generate a cGMP standard curve. The cGMP standard was created using 1:3 dilution series to maximize the linear part of the standard, which was used to calculate the amount of cGMP generated by sGC during the reaction. Only at the linear area, the TRF-signal relation to cGMP concentration can be determined.

sGC [3] = biological target: T1, sGC; set-up: method as in PMID 26777256; conditions: cited from earlier work
[4] = test system: monoclonal cGMP-specific antibody; experiment: Homogeneous competitive QRET cGMP detection with cGMP-specific antibody; type: binding; conditions: for recognition of the nucleotide by the antibody: nucleotide titration, data not shown
Method: All biochemical assays were performed in a 10 µL final volume using triplicate reactions and three individual experiments unless otherwise indicated. The non-enzymatic and real-time cGMP assays were performed in assay buffer 1 (20 mM HEPES, pH 7.5, 1 mM MgCl2, 0.005% γ-globulins, 0.01% Triton X-100), enzymatic end-point assays in assay buffer 2 (assay buffer 1 without 0.01% Triton X-100), and detection components ([…], antibody, and MT2) were added in the stop buffer (assay buffer 1 supplemented with 10 mM EDTA instead of 1 mM MgCl2). In all buffers, sGMP was equally detected. Buffers for end-point assay were optimized to avoid the used of Triton X-100 during the enzymatic sGC reaction, avoiding the progressive loss of heme, and by using the EDTA in stop buffer to chelate the enzyme essential MgCl2.
After initial assays, cGMP detection protocol was tested in cGMP titration with two antibody (2 ng/well and 4 ng/well) and two Eu(III)-cGMP (1 nM and 5 nM) concentrations. Titrated cGMP (0–250 µM) was added in 5 µL volume and detection solution containing Eu(III)-cGMP, cGMP antibody, and MT2 (1.2 µM or 2.2 µM) in 5 µL volume. Similar titrations were performed with other nucleotides (cAMP, GTP, ATP, ADP, and GMP). cGMP was also titrated in the presence of 0.5 mM GTP. In all of these assays, background controls were performed with six repeats and TRF-signals were monitored multiple times between 5 to 90 min to determine the TRF-signal stability.
Assays were performed with Eu(III)-cGMP concentration dependent individually fixed MT2 (1.2–3.2 µM) quencher concentration. TRF-signals were measured and the Eu(III)-cGMP equilibrium dissociation constant (Kd) for the cGMP-specific antibody was determined using linearized Cheng-Prusoff Equation[59].

PDE5A = test system: PDE5A; set-up: method as in PMID 10574925; conditions: read-out: Km of PDE5A for cGMP; cited from earlier work

IC50 [1]: 81.3 ± 4.8 µM
Structure (SMILES): C[C@H](Cc1nc2c(cnn2-c2ccccc2Cl)c(=O)[nH]1)C(F)(F)F [BAY73-6691]

IC50 [1]: 45.2 ± 6.8 µM
Structure (SMILES): CCCc1nn(C)c2c(=O)[nH]c(-c3cc(S(=O)(=O)N4CCN(C)CC4)ccc3OCC)nc12 [sildenafil]

effect on sGC activity at fixed saturating concentration (sGC [2]; 5 ng sGC, 10 min at 37 °C): no significant effect | effect on sGC activation when assayed together with BAY58-2667 or gemfibrozil (sGC [2]; 10 µM NS2028 with 100 nM BAY58-2667 or 100 µM gemfibrozil, 5 ng sGC, 10 min at 37 °C): increased the activation
Structure (SMILES): O=c1onc2n1-c1cc(Br)ccc1OC2 [NS2028, 8-bromo-4H-2,5-dioxa-3,9b-diaza-cyclopenta[a]naphthalen-1-one]

EC50 (sGC [2]): 0.26 ± 0.1 µM
Structure (SMILES): COC(=O)N(C)c1c(N)nc(-c2nn(Cc3ccccc3F)c3ncccc23)nc1N [riociguat]

Structure (SMILES): Nc1nc2c(ncn2[C@@H]2O[C@H](COP(=O)(O)OP(=O)(O)OP(=O)(O)O)[C@@H](O)[C@H]2O)c(=O)[nH]1 [GTP, guanosine triphosphate]
Km (sGC [3]; NO-activated sGC, read-out: Km for GTP, NO-activated sGC): < 75 µM | Km (sGC [3]; resting sGC, read-out: Km for GTP, resting sGC): ~220 µM | specificity of the antibody for cGMP over the nucleotide [4]: 1000 fold

Structure (SMILES): Nc1nc2c(ncn2[C@@H]2O[C@@H]3COP(=O)(O)O[C@H]3[C@H]2O)c(=O)[nH]1 [cGMP, Cyclic 3´,5´-guanosine monophosphate]
Km (PDE5A): ~2 µM | EC50 ([4]; 1 nM Eu(III)-cGMP and 2 ng of antibody/well, read-out: EC50 value of cGMP titration (displacement of Eu(III)-cGMP from antibody)): 0.72 ± 0.07 µM | EC50 ([4]; 5 nM Eu(III)-cGMP and 4 ng of antibody/well, read-out: EC50 of cGMP titration (displacement of Eu(III)-cGMP from antibody)): 1.8 ± 0.22 µM

Structure (SMILES): Nc1ncnc2c1ncn2[C@@H]1O[C@H](COP(=O)(O)OP(=O)(O)O)[C@@H](O)[C@H]1O [ADP]
recognition of the nucleotide by the antibody [4]: could not be recognized by the antibody

IC50 [1]: 9.9 ± 0.6 µM
Structure (SMILES): CC(C)Cn1c(=O)n(C)c(=O)c2[nH]cnc21 [IBMX, 3-isobutyl-1-methylxanthine]

Structure (SMILES): Nc1ncnc2c1ncn2[C@@H]1O[C@H](COP(=O)(O)OP(=O)(O)OP(=O)(O)O)[C@@H](O)[C@H]1O [ATP]
recognition of the nucleotide by the antibody [4]: could not be recognized by the antibody

Structure (SMILES): CCN(CC)/[N+]([O-])=N/O.CCNCC [DEA-NO, diethylamine NONOate]
EC50 (sGC [2]): 0.93 ± 0.1 µM | effect on sGC activity at fixed saturating concentration (sGC [2]; 5 ng sGC, 10 min at 37 °C): largest increase in sGC activity | NO-stimulated sGC specific activity in the presence of COS7 lysate (sGC [2]; 10 µM DEA-NO, 5 ng sGC/well, 10 min at 37 °C, 0.14 mg/ml COS7 lysate): 19.3 ± 4.2 µmol/mg/min | NO-stimulated sGC specific activity (sGC [2]; 10 µM DEA-NO, 5 ng sGC/well, 10 min at 37 °C, buffer): 4.8 ± 1.0 µmol/min/mg | fold increase for cGMP compared to untreated sGC (sGC [2]; 5 ng sGC/well, 10 min at 37 °C): ~50 fold

Structure (SMILES): Nc1ncnc2c1ncn2[C@@H]1O[C@@H]2COP(=O)(O)O[C@H]2[C@H]1O [cAMP, cyclic adenosine monophosphate]
recognition of the nucleotide by the antibody [4]: could not be recognized by the antibody

Structure (SMILES): OCc1ccc(-c2nn(Cc3ccccc3)c3ccccc23)o1 [YC-1, 3-(5′-hydroxymethyl-2′-furyl)-1-benzyl indazole]
EC50 (sGC [2]): 5.7 ± 1 µM

fold increase for cGMP compared to untreated sGC (sGC [2]; 5 ng sGC/well, 10 min at 37 °C): approximately 20 fold
Structure (SMILES): Cc1ccc(C)c(OCCCC(C)(C)C(=O)O)c1 [gemfibrozil]
